The values that follow come from publication PMC10629533, “Structures and membrane interactions of native serotonin transporter in complexes with psychostimulants” (Proceedings of the National Academy of Sciences of the …, 2023).

SMILES strings stand for the structures.

For this assay, the target named is T1, porcine serotonin transporter (pSERT) (Sus scrofa, UniProt F1RN70).
T1 construct: gene SLC6A4; native full-length pSERT from porcine brain; model residues 116-654; with 15B8 Fab
Description: cryo-EM structure ([…] Å); [3H]paroxetine competition SPA with purified native pSERT. It counts as binding.

T1 sequence (F1RN70 38-667): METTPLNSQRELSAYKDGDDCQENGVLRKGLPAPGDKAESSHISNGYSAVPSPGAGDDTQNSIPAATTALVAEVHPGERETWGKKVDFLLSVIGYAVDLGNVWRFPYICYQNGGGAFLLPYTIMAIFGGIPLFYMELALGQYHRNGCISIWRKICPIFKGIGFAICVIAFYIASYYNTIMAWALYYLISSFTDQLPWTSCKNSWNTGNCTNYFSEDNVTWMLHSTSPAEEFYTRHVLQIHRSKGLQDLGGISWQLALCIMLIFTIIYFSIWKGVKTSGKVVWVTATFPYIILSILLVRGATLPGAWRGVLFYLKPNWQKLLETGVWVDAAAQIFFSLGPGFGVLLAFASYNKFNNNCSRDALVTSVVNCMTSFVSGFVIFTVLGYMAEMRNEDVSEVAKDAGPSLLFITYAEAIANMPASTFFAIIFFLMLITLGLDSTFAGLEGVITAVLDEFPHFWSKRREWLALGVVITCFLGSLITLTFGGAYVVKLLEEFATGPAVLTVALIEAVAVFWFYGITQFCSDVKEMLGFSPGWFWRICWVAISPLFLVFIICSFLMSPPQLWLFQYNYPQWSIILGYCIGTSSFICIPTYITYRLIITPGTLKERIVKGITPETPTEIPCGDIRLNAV

For the compound `CN[C@@H](C)Cc1ccccc1` [(+)-methamphetamine], the Ki – broadly, the equilibrium dissociation constant of an inhibitor or competing ligand from its target – was found to be 199 ± 103 µM.
